Values quoted from earlier work in US20170335399A1, “DETECTION OF MINERALOCORTICOID RECEPTOR ACTIVATION AND PERSONALIZED ANTIHYPERTENSIVE THERAPY BASED THEREON” (The Regents of University of Michigan, priority 2014, published 2017).

Assays:
[1] = target: T1, mineralocorticoid receptor (MR) (Homo sapiens, UniProt P08235); details: resistant hypertension patients; ASPIRANT trial; placebo-corrected mean
T1 construct: host or cells: patients with resistant hypertension (in vivo)
T1 sequence (P08235 1-984): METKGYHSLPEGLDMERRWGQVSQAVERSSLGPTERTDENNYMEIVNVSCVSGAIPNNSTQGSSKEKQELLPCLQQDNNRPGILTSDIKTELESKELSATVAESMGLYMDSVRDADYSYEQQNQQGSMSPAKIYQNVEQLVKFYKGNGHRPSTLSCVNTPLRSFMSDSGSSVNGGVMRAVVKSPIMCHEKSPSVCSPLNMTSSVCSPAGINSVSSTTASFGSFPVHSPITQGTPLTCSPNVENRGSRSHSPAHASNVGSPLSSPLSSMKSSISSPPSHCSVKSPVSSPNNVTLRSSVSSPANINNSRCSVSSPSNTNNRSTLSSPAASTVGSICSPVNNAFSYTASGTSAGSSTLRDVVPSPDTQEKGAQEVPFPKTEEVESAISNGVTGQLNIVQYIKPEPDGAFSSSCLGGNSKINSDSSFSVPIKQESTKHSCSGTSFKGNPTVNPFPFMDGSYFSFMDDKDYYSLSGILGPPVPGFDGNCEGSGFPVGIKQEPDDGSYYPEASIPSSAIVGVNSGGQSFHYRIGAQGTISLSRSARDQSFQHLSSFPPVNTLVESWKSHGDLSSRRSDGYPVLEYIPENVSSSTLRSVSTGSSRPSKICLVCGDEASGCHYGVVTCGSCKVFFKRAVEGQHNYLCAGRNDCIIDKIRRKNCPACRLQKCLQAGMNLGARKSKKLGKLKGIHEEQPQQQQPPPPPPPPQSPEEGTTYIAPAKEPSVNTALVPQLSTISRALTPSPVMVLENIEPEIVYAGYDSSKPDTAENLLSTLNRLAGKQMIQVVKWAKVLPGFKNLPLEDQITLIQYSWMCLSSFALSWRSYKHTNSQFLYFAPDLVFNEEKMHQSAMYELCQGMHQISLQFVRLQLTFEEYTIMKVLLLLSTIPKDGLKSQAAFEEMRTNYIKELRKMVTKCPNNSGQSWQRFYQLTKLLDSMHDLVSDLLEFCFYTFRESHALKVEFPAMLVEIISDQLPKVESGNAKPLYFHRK

[2] = target: T1, mineralocorticoid receptor (MR); details: resistant hypertension; after addition of spironolactone; other studies
ENaC = details: patients treated with spironolactone

In the case of `CC(=O)S[C@@H]1CC2=CC(=O)CC[C@]2(C)[C@H]2CC[C@@]3(C)[C@@H](CC[C@@]34CCC(=O)O4)[C@H]12` [spironolactone], the “mean reduction of 24-hour systolic blood pressure more than placebo” value [1] is given as 9.8 mm Hg, the “mean reductions in systolic blood pressure” value [2] is given as 16-26 mm Hg and the “ENaC expression on peripheral blood mononuclear cells” value (ENaC) is given as “decreased”.
